{"source": "patent US20220153741A1", "about": "“HETEROCYCLIC COMPOUNDS AS INHIBITORS OF KRAS G12C” (Guangdong Newopp Biopharmaceuticals Co., Ltd., priority 2019, published 2022)", "key": {"[1]": {"conditions": "from CC(C)c1nccc(CCC(=O)O)c1-n1c(=O)[nH]c(=O)c2cc(F)c(-c3c(N)cccc3Cl)nc21; amide bond; T3P; DCE; 39.3 mM; 50.0 °C; 1.0 h"}, "[2]": {"conditions": "from CC(C)c1nccc(CCC(=O)O)c1-n1c(=O)[nH]c(=O)c2cc(F)c(-c3c(N)cccc3Cl)nc21; amide bond; 12-membered ring; T3P; DCE; 39.3 mM; 50.0 °C"}}}
{"smiles": "CC(C)c1nccc2c1-n1c(=O)[nH]c(=O)c3cc(F)c(nc31)-c1c(Cl)cccc1NC(=O)CC2", "values": [{"measurement": "ring closure, yield of all isomers", "setting": "[1]", "value": 29, "unit": "%"}, {"measurement": "ring closure, isolated yield", "setting": "[2]", "value": 29, "unit": "%"}]}
